In article PMC9507378 (Advanced Science, 2022):
Values after ≈ are worked out from the molar mass of the structure shown.

Experiments:
[1] = tested on: OP9 cells; experiment: CCK-8 cell viability assay; type: cell-based; conditions: 48 h, CCK-8, n = 6, tested 6.25 to 100 µg mL^−1, read-out: concentration showing the median inhibitory effect on OP9 cells
Procedure: macropinocytosis, actin microfilament, and microtubule. The OP9 cells were pretreated with five inhibitors separately in 2% FBS culture media for 1 h, then the culture media was replaced with new culture media simultaneously containing OGP-tFNAs-Cy5 and different inhibitors for another 6 h. After that, the samples were collected for flow cytometric analysis and confocal microscopy observation for fluorescence intensity detection.
Cell viability assay: Cell Counting Kit-8 (CCK-8) assay was applied to detect the cell viability after treatment with tFNAs, OGP and OGP-tFNAs with different […]
Cell cycle, senescence and apoptosis detection: Cell cycle and apoptosis were detected via flow cytometric analysis. […]
treatment (25 μg/mL). The cell cycle was detected using cell cycle detection Kit (KeyGEN, Jiangsu, China). […] After that, the samples were rinsed with PBS and incubated with RNase for 30 min in 37℃ water-bath, then incubated with Propidium Iodide (PI) for 30min and detected via flow cytometry. The cell apoptosis was detected using Annexin V-FITC/PI apoptosis detection kit (KeyGEN, Jiangsu, China).
After the cells were collected and resuspended with 500 μL binding buffer, 5 μL Annexin V-FITC and 5 μL PI were added into the binding buffer. After 5-15 min incubation, the samples were detected via flow cytometry. […]

[2] = tested on: SCF production in OP9 cells; experiment: SCF expression (immunofluorescence, Western blot); type: cell-based; conditions: 25 µg mL^−1 5-FU, 24 h; n = 3
Procedure: staining buffer (2% FBS in PBS), then immunofluorescent staining was performed for later flow cytometry (PE anti-γ-H2AX, Biolegend, 1:20).
Western blotting: The total protein was extracted using Total Protein Extraction Kit (KeyGEN, Jiangsu, China) according to the standard protocol. After protein extraction and boiling denaturation, the proteins were separated using 10-15% SDS-PAGE and transferred to PVDF membranes. Then the samples were blocked with blocking buffer (QuickBlock™ Blocking Buffer, Beyotime Biotechnology, Shanghai, China) for 15min, and then incubated with related primary antibodies (anti-GAPDH, CST, 1:1000; anti-Bcl-2, CST, […]; anti-Bax, CST; anti-Caspase-3, […]
1:500; anti-γ-H2AX, abcam, 1:5000) overnight at 4 ℃. At the second day, the samples were incubated with related secondary antibodies for 1h and detected using Gel & Blot Imaging system (ChemiDoc MP, Bio-Rad, USA). […]
another 24-h 5-FU treatment. […] Finally, the samples were detected using fluorescence confocal microscope (FV3000, Olympus, Japan).
Plasma pharmacokinetics: Plasma pharmacokinetics experiment was performed to investigate the in vivo metabolism of tFNAs and OGP-tFNAs. tFNAs-Cy5 and OGP-tFNAs-Cy5 were administrated via tail vein injection. […] Finally, the blood samples were detected using the channel of Cy5 fluorescence of Gel & Blot Imaging system (ChemiDoc MP, Bio-Rad, USA). […]

[3] = tested on: OP9 cells; experiment: Apoptosis by flow cytometry (Annexin V-FITC/PI); type: cell-based; conditions: 5-FU group, 25 µg mL^−1, 24 h
Procedure: Cell cycle, senescence and apoptosis detection: Cell cycle and apoptosis were detected via flow cytometric analysis. OP9 cells were cultured in 6-well plates and
treatment (25 μg/mL). […] The cell apoptosis was detected using Annexin V-FITC/PI apoptosis detection kit (KeyGEN, Jiangsu, China).

[4] = tested on: OP9 cells; experiment: Cellular internalization mechanism of OGP-tFNAs with endocytosis inhibitors; type: cell-based; conditions: 1 h inhibitor pretreatment in 2% FBS medium then 6 h with OGP-tFNAs-Cy5, 20 μM for Dynasore and Cytochalasin D, flow cytometry, n = 3
Procedure: Cell culture and treatment: Bone marrow stromal OP9 cells were purchased from
National Collection of Authenticated Cell Cultures (Shanghai, China). The cells were
cultured in α-MEM with 1% penicillin-streptomycin and 20% FBS at 37 ° C in 5%
CO2. When the cell intensity approached 80%-90%, OP9 cells were recultivated in
internalization of tFNAs, and the influence of tFNAs as drug carriers on the cellular
labeled with FITC fluorescence. After the cells were treated with tFNAs-Cy5 and
harvested for flow cytometric analysis (Attune® NxT, Invitrogen, USA) and confocal
fluorescence microscopy observation (FV3000, Olympus, Japan).
(Methyl-β-cyclodextrin, MedChemExpress, USA; Dynasore, MedChemExpress, USA;
Nocodazole, MedChemExpress, USA; Amiloride hydrochloride, Abcam, USA;
Cytochalasin D, Abcam, USA) were used to inhibit the clathrin, caveolae,

[5] = tested on: ICR mice; conditions: mouse, in vivo, ip, 150 mg/kg
Procedure: 6–8 weeks male ICR mice (Dossy Experimental Animals Co, Ltd., Chengdu, China) were raised in specific pathogen‐free (SPF) environment with stable temperature and 12 h light/dark cycle.
Myelosuppression induction and systematic drug delivery: The mice were divided
into five groups: 1) Control group; 2) Saline + myelosuppression group; 3) tFNAs +
myelosuppression group. For myelosuppression groups, the mice were continuously
intraperitoneal injection (i.p.) for 3 days (days 4-6) for myelosuppression induction.
For normal group, the same volume of saline was delivered via tail intravenous
injection at days 1-9 and PBS via intraperitoneal injection at days 4-6. At day 10, all
the mice were sacrificed for later detections.
Histological detections: As main hematopoietic organs, femurs and sternums were
collected and fixed in 4% paraformaldehyde. After decalcification for 3-4 weeks in
EDTA decalcifying solution (Servicebio, Wuhan, China), the samples were
dehydrated and embedded in paraffin. Then, the samples were coronally sectioned
along the long axis of the femurs and sternums, then Hematoxylin-Eosin (H&E)
staining was performed to observe the histological changes. Meanwhile, as major

O=c1[nH]cc(F)c(=O)[nH]1 [5-FU, 5‐fluorouracil]
IC50 [1]: 25 µg/mL (≈ 192 µM)
reduction of SCF production in OP9 cells [2]: ≈ 50%
number of dead OP9 cells [3]: ≈ 30%

C=C1[C@@H](C)[C@H]2[C@H](Cc3ccccc3)NC(=O)[C@]23[C@H](OC(C)=O)/C=C/[C@@](C)(O)C(=O)[C@@H](C)C/C=C/[C@H]3[C@@H]1O [Cytochalasin D]
inhibition of internalization of OGP-tFNAs [4]: more significant inhibition ratios

O=C(N/N=C/c1ccc(O)c(O)c1)c1cc2ccccc2cc1O [Dynasore]
inhibition of internalization of OGP-tFNAs [4]: more significant inhibition ratios

O=P1(N(CCCl)CCCl)NCCCO1 (stereo not drawn) [cyclophosphamide]
share of the bone marrow cavity filled by bone marrow cells [5]: 20–30%
